The values below are quoted from earlier work in patent US20030212274A1, “Novel amorphous form of omeprazole salts” (priority 2003, published 2003).

Structures are written as SMILES. Where two headings read alike, the source gives them in different places.

For data set [1] the following is noted: storage at +37° C., relative humidity 80%, 6 months (accelerated conditions).

For the compound `COc1ccc2[nH]c([S+]([O-])Cc3ncc(C)c(OC)c3C)nc2c1` (stereo not drawn) [Omeprazole, 5-methoxy-2-[(4-methoxy-3,5-dimethyl-2-pyridinyl)-methyl]sulfinyl-1H-benzimidazole], the “half-life of degradation in water solutions” value reads like this: (pH-values less than four) “ten”; (pH=7) “about 14 hours”. For the same compound, the “substance converted to degradation products” value in data set [1] was “about 6%”.
